Assay [1] deals with T1, human prostanoid EP1 receptor (Homo sapiens, UniProt P34995).
T1 construct: expressed in transfected cells; host or cells: CHO-K1 (membrane fraction)
T1 sequence (P34995 1-402): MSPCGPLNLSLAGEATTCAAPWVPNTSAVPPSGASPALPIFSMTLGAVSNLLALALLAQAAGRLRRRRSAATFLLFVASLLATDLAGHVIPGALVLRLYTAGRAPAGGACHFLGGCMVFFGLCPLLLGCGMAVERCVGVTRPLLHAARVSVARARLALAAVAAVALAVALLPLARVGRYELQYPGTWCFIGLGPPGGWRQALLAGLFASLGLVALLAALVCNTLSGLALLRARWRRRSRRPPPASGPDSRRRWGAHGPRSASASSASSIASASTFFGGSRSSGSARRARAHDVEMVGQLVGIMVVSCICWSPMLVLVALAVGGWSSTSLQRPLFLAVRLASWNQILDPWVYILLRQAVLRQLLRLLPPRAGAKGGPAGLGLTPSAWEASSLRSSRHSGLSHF
As to the kind of experiment: Binding assay for the human prostanoid EP1 receptor (competition with [3H]-PGE2). As to conditions: negative logarithm10 of the IC50; competition with [3H]-PGE2, CHO-K1 cell membranes; averages of a number of experiments; read-out: pIC50 value (converted). The procedure:
Competition assay using [^3H]-PGE2.
Compound potencies are determined using a radioligand binding assay. In this assay compound potencies are determined from their ability to compete with tritiated prostaglandin E2 ([^3H]-PGE2) for binding to the human EP1 receptor.
This assay utilises Chinese hamster ovary-K1 (CHO-K1) cells into which a stable vector containing the EP1 cDNA has previously been transfected. Cells are cultured in suitable flasks containing culture medium such as DMEM:F-12 supplemented with 10% v/v foetal calf serum, 2 mM L-glutamine, 0.25 mg/ml geneticin, 10 μg/ml puromycin and 10 μM indomethacin.
Cells are detached from the culture flasks by incubation in calcium and magnesium free phosphate buffered saline containing 1 mM disodium ethylenediaminetetraacetic acid (Na2EDTA) and 10 μM indomethacin for 5 min. The cells are isolated by centrifugation at 250×g for 5mins and suspended in an ice cold buffer such as 50 mM Tris, 1 mM Na2EDTA, 140 mM NaCl, 10 μM indomethacin (pH 7.4). The cells are homogenised using a Polytron tissue disrupter (2×10s burst at full setting), centrifuged at 48,000×g for 20mins and the pellet containing the membrane fraction is washed (optional) three times by suspension and centrifugation at 48,000×g for 20mins. The final membrane pellet is suspended in an assay buffer such as 10 mM 2-[N-morpholino]ethanesulphonic acid, 1 mM Na2EDTA, 10 mM MgCl2 (pH 6). Aliquots are frozen at −80° C. until required.
For the binding assay the cell membranes, competing compounds and [^3H]-PGE2 (3 nM final assay concentration) are incubated in a final volume of 100 μl for 30 min at 30° C. All reagents are prepared in assay buffer. Reactions are terminated by rapid vacuum filtration over GF/B filters using a Brandell cell harvester. The filters are washed with ice cold assay buffer, dried and the radioactivity retained on the filters is measured by liquid scintillation counting in Packard TopCount scintillation counter.
The data are analysed using non linear curve fitting techniques to determine the concentration of compound producing 50% inhibition of specific binding (IC50).

The next assay has as its target T2, human EP1 receptor (Homo sapiens, UniProt P34995).
T2 construct: expressed in transfected cells; host or cells: CHO-K1
T2 sequence (P34995 1-402): T1 sequence (P34995 1-402)
As to the kind of experiment: human EP1 calcium mobilisation assay. The assay is classed as cell-based. As to conditions: negative logarithm10 of the antagonist dissociation constant; CHO-K1 cells, PGE2; free bases or sodium salts; averages of a number of experiments; read-out: functional pKi value (converted). The procedure:
Briefly, the antagonist properties of compounds are assessed by their ability to inhibit the mobilisation of intracellular calcium ([Ca^2+]i) in response to activation of EP1 or EP3 receptors by the natural agonist hormone prostaglandin E2 (PGE2). Increasing concentrations of antagonist reduce the amount of calcium that a given concentration of PGE2 can mobilise. The net effect is to displace the PGE2 concentration-effect curve to higher concentrations of PGE2. The amount of calcium produced is assessed using a calcium-sensitive fluorescent dye such as Fluo-4, AM and a suitable instrument such as a Fluorimetric Imaging Plate Reader (FLIPR). Increasing amounts of [Ca^2+]i produced by receptor activation increase the amount of fluorescence produced by the dye and give rise to an increasing signal. The signal may be detected using the FLIPR instrument and the data generated may be analysed with suitable curve-fitting software.
The human EP1 or EP3 calcium mobilisation assay (hereafter referred to as ‘the calcium assay’) utilises Chinese hamster ovary-K1 (CHO-K1) cells into which a stable (pCIN; BioTechniques 20 (1996): 102-110) vector containing either EP1 or EP3 cDNA has previously been transfected. Cells are cultured in suitable flasks containing culture medium such as DMEM:F-12 supplemented with 10% v/v foetal calf serum, 2 mM L-glutamine, 0.25 mg/ml geneticin, 100 μM flurbiprofen and 10 μg/ml puromycin.
For assay, cells are harvested using a proprietary reagent that dislodges cells such as Versene. Cells are re-suspended in a suitable quantity of fresh culture media for introduction into a 384-well plate. Following incubation for 24 hours at 37° C. the culture media is replaced with a medium containing Fluo-4 and the detergent pluronic acid, and a further incubation takes place. Concentrations of compounds are then added to the plate in order to construct concentration-effect curves. This may be performed on the FLIPR in order to assess the agonist properties of the compounds. Concentrations of PGE2 are then added to the plate in order to assess the antagonist properties of the compounds.
The data so generated may be analysed by means of a computerised curve-fitting routine. The concentration of compound that elicits a half-maximal inhibition of the calcium mobilisation induced by PGE2 (plC50) may then be estimated.

SMILES strings stand for the structures. Structures can show the parent of a compound that is named as a salt. Bounds are passed on as bounds.

Regarding `CCNCc1ccc(NC(=O)c2cc(C)n(Cc3cc(Cl)ccc3OCC(C)C)n2)cc1` [Example 393, 1-({5-Chloro-2-[(2-methylpropyl}oxy]phenyl}methyl)-N-{4-[(ethylamino)methyl]phenyl}-5-methyl-1H-pyrazole-3-carboxamide hydrochloride], the IC50 in assay [1] was at most 10 nM.

For `Cc1cc(C(=O)Nc2ccc(CNC(C)C)cc2)nn1Cc1cc(Cl)ccc1OCC(C)C` [Example 395, 1-({5-Chloro-2-[(2-methylpropyl)oxy]phenyl}methyl)-5-methyl-N-(4-{[(1-methylethyl)amino]methyl}phenyl)-1H-pyrazole-3-carboxamide hydrochloride], the IC50 in assay [1] is at most 10 nM.

On to `Cc1cc(NC(=O)CC(C)(C)C)nn1Cc1cc(Cl)ccc1OCc1ccc(F)cc1F` [Example 132, N-{1-[(5-Chloro-2-{[(2,4-difluorophenyl)methyl]oxy}phenyl)methyl]-5-methyl-1H-pyrazol-3-yl}-3,3-dimethylbutanamide], for which the IC50 in assay [1] was at most 10 nM.

Turning to `Cc1cc(C(=O)Nc2c(F)cccc2F)nn1Cc1cc(Br)ccc1OCc1ccccc1` [Example 313, 1-({5-Bromo-2-[(phenylmethyl)oxy]phenyl}methyl)-N-(2,6-difluorophenyl)-5-methyl-1H-pyrazole-3-carobxamide], in assay [1], the IC50 is at most 10 nM.

With `Cc1cc(C(=O)Nc2ccc(CN3CCNC(=O)C3)cc2)nn1Cc1cc(Cl)ccc1OCC(C)C` [Example 399, 1-({5-Chloro-2-[(2-methylpropyl)oxy]phenyl}methyl)-5-methyl-N-{4-[(3-oxo-1-piperazinyl)methyl]phenyl}-1H-pyrazole-3-carboxamide hydrochloride], in assay [1], the IC50 was at most 10 nM.

Consider `Cc1cc(-c2nc3ccc(N4CCN(C)CC4)cc3[nH]2)nn1Cc1cc(Cl)ccc1OCC(C)C` [Example 375, 2-[1-({5-Chloro-2-[(2-methylpropyl)oxy]phenyl}methyl)-5-methyl-1H-pyrazol-3-yl]-5-(4-methyl-1-piperazinyl)-1H-benzimidazole trihydrochloride], for which, in assay [1], the IC50 is at most 10 nM.

Turning to `Cc1cc(NC(=O)CC(C)(C)C)nn1Cc1cc(Cl)ccc1OCc1ccc(Cl)cc1F` [Example 136, N-{1-[(5-Chloro-2-{[(4-chloro-2-fluorophenyl)methyl]oxy}phenyl)methyl]-5-methyl-1H-pyrazol-3-yl}-3,3-dimethylbutanamide], the IC50 in assay [1] was at most 10 nM.

For the compound `Cc1cc(C(=O)NS(=O)(=O)c2ccccc2)nn1Cc1cc(Cl)ccc1OCc1ccccc1` [Example 355, 1-({5-Chloro-2-[(phenylmethyl)oxy]phenyl}methyl)-5-methyl-N-(phenylsulfonyl)-1H-pyrazole-3-carboxamide], the IC50 in assay [1] is at most 10 nM.

Take `Cc1cc(C(=O)Nc2ccc(CN3CCCC3)cc2)nn1Cc1cc(Cl)ccc1OCC(C)C` [Example 396, 1-({5-Chloro-2-[(2-methylpropyl)oxy]phenyl}methyl)-5-methyl-N-[4-(1-pyrrolidinylmethyl)phenyl]-1H-pyrazole-3-carboxamide hydrochloride]: in assay [1], the IC50 was at most 10 nM.

In the case of `Cc1cc(NC(=O)CC(C)(C)C)nn1Cc1cc(Cl)ccc1OCc1ccc(F)cc1Cl` [Example 133, N-{1-[(5-Chloro-2-{[(2-chloro-4-fluorophenyl)methyl]oxy}phenyl)methyl]-5-methyl-1H-pyrazol-3-yl}-3,3-dimethylbutanamide], the IC50 in assay [1] is at most 10 nM.

As to `Cc1noc(C)c1S(=O)(=O)NC(=O)c1cc(C)n(Cc2cc(Cl)ccc2OCc2ccccc2)n1` [Example 356, 1-({5-Chloro-2-[(phenylmethyl)oxy]phenyl}methyl)-N-[(3,5-dimethyl-4-isoxazolyl)sulfonyl]-5-methyl-1H-pyrazole-3-carboxamide], the IC50 in assay [1] was at most 10 nM.

With `Cc1cc(NC(=O)C2CCCCC2)nn1Cc1cc(Cl)ccc1OCc1ccccc1` [Example 110, N-[1-({5-Chloro-2-[(phenylmethyl)oxy]phenyl}methyl)-5-methyl-1H-pyrazol-3-yl]cyclohexanecarboxamide], the IC50 in assay [1] is at most 10 nM.

Consider `Cc1cc(NC(=O)OC2CCOCC2)nn1Cc1cc(Br)ccc1OCc1ccc(Cl)cc1Cl` [Example 30, Tetrahydro-2H-pyran-4-yl {1-[(5-bromo-2-{[(2,4-dichlorophenyl)methyl]oxy}phe-nyl)methyl]-5-methyl-1H-pyrazol-3-yl}carbamate], for which, in assay [1], the IC50 was at most 10 nM.

As to `Cc1cc(NC(=O)c2c(F)cc(CNC(C)C)cc2F)nn1Cc1cc(Cl)ccc1OCC(C)C` [Example 440, N-[1-({5-chloro-2-[(2-methylpropyl)oxy]phenyl}methyl)-5-methyl-1H-pyrazol-3-yl]-2,6-difluoro-4-{[(1-methylethyl)amino]methyl}benzamide hydrochloride], the Ki on human EP1 receptor was above 1000 nM.

Turning to `Cc1cc(C(=O)Nc2ccccc2C#N)nn1Cc1cc(Cl)ccc1OCc1ccccc1` [Example 304, 1-({5-Chloro-2-[(phenylmethyl)oxy]phenyl}methyl)-N-(2-cyanophenyl)-5-methyl-1H-pyrazole-3-carboxamide], at human EP1 receptor, the Ki is above 1000 nM.

In the case of `Cc1cc(C(=O)NCc2cccnc2)nn1Cc1cc(Cl)ccc1OCc1ccccc1` [Example 294, 1-({5-Chloro-2-[(phenylmethyl)oxy]phenyl}methyl)-5-methyl-N-(3-pyridinylmethyl)-1H-pyrazole-3-carboxamide], the Ki on human EP1 receptor is above 1000 nM.

`Cc1cc(OC(=O)NC2CCCCC2)nn1Cc1cc(Cl)ccc1OCC(C)C` [Example 51, 1-({5-Chloro-2-[(2-methylpropyl)oxy]phenyl}methyl)-5-methyl-1H-pyrazol-3-yl cyclohexylcarbamate]: the Ki at human EP1 receptor was above 1000 nM.

Regarding `Cc1cc(NC(=O)Cc2ccccc2)nn1Cc1cc(Cl)ccc1OCc1ccc(F)c(F)c1` [Example 128, N-{1-[(5-Chloro-2-{[(3,4-difluorophenyl)methyl]oxy}phenyl)methyl]-5-methyl-1H-pyrazol-3-yl}-2-phenylacetamide], on human EP1 receptor, the Ki is above 1000 nM.

As to `Cc1cc(-c2nc3nccnc3[nH]2)nn1Cc1cc(Cl)ccc1OCc1ccccc1` [Example 368, 2-[1-({5-Chloro-2-[(phenylmethyl)oxy]phenyl}methyl)-5-methyl-1H-pyrazol-3-yl]-1H-imidazo[4,5-b]pyrazine hydrochloride], the Ki on human EP1 receptor is above 1000 nM.

For the compound `Cc1cc(-c2cnc(-n3cccn3)[nH]2)nn1Cc1cc(Cl)ccc1OCc1ccccc1` [Example 481, 1-({5-Chloro-2-[(phenylmethyl)oxy]phenyl}methyl)-5-methyl-3-[2-(1H-pyrazol-1-yl)-1H-imidazol-4-yl]-1H-pyrazole hydrochloride], on human EP1 receptor, the Ki is above 1000 nM.

(Values after patent US20090239845A1, “PYRAZOLE COMPOUNDS AS PROSTAGLANDIN RECEPTORS LIGANDS” (priority 2005, published 2009).)
